Consider nine molecules from patent US5858994A, “Carbohydrate conjugates as inhibitors of cell adhesion” (priority 1994, dated 1999).

In one experiment the target is T1, P-Selectin (Homo sapiens, UniProt P16109).
T1 sequence (P16109 42-771): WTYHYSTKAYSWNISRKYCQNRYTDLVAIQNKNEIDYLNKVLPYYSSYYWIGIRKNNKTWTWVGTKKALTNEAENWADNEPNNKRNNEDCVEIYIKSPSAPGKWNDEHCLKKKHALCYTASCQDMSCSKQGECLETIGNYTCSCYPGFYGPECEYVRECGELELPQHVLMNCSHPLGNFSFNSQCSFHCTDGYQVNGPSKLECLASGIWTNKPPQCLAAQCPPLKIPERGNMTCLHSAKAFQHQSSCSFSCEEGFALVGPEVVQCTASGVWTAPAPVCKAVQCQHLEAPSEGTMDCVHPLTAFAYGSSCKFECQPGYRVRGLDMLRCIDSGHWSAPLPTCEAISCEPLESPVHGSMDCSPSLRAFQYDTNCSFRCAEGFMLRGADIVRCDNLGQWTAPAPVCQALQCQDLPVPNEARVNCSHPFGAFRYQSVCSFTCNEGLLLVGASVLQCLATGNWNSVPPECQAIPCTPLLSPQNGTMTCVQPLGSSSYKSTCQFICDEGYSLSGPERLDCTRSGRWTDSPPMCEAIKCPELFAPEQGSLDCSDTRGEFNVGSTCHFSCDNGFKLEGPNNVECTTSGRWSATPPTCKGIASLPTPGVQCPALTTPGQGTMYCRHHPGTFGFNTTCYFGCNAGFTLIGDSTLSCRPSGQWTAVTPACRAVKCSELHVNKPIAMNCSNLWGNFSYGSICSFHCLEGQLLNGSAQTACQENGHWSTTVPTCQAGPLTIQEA
Kind of experiment: Inhibition of HL60 cell adhesion to soluble, recombinant P-selectin (P-selectin-IgG1 fusion protein). In kind it is cell-based. The text has this:
(§1) Carrying out these assays to measure the inhibitory activity of the compounds according to the invention on cell adhesion of promyelocytic cells by means of selecting is described in detail in European Published Application EP 0 601 417.
(§2) In order to test the efficacy of the carbohydrate conjugates on the interaction between the E- and P-selectins (former nomenclature ELAM-1 or GMP-140) with their ligands, an assay is used which in each case is specific only for one of these interactions. The ligands are supplied in their natural form as surface structures on promyelocytic HL60 cells. Since HL60 cells contain ligands and adhesion molecules of very different specificity, the desired specificity of the assay can only be produced by means of the binding component. The binding components used were genetically prepared soluble fusion proteins from the in each case extracytoplasmatic domains of E- or P-selectin and the constant region of a human immunoglobulin of the IgG1 subclass.
Preparation of P-selectin-IgG1
For preparation of the soluble P-selectin-IgG1 fusion protein, the genetic construct "ICD62Rg" published by Aruffo et al., 1991 is used. The further procedure corresponds to the preparation of L-selectin-IgG1 presented under A1.
(§3) 1. 96-well microtiter test plates (Nunc Maxisorb) are incubated at room temperature for 2 hours with 100 μl of a goat anti-human IgG antibody (Sigma) diluted (1+100) in 50 mM Tris pH 9.5. After removing the antibody solution washing is carried out once with PBS.
(§4) 2. 150 μl of the blocking buffer are left in the wells at room temperature for 1 hour. The composition of the blocking buffer is: 0.1% gelatin, 1% BSA, 5% calf serum, 0.2 mM PMSF, 0.02% sodium azide. After removing the blocking buffer washing is carried out once with PBS.
(§5) 3. 100 μl each of cell culture supernatant of appropriately transfected and expressing COS cells are pipetted into the wells. Incubation is carried out at room temperature for 2 hours. After removing the cell culture supernatant washing is carried out once with PBS.
(§6) 4. 20 μl of binding buffer are added to the wells. The binding buffer has the composition: 50 mM HEPES, pH 7.5; 100 mM NaCl; 1 mg/ml BSA; 2 mM MgCl2; 1 mM CaCl2; 3 mM MnCl2; 0.02% sodium azide; 0.2 mM PMSF. 5 μl of the test substance are pipetted into this, mixed by swirling the plate and incubated at room temperature for 10 minutes.
(§7) 5. 50 ml of an HL60 cell culture containing 200,000 cells/ml are centrifuged at 350 g for 4 minutes. The pellet is resuspended in 10 ml of RPMI 1640 and the cells are centrifuged again. For labeling the cells, 50 μg of BCECF-AM (Molecular Probes) are dissolved in 5 μl of anhydrous DMSO; 1.5 ml of RPMI 1640 are then added to the BCECF-AM/DMSO solution. The cells are resuspended using this solution and incubated at 37° C. for 30 minutes. After centrifugation at 350 g for 2 minutes, the labeled cell pellet is resuspended in 11 ml of binding buffer and the resuspended cells are distributed into the microtiter plate wells in 100 μl aliquots. The plate is allowed to stand at room temperature for 10 minutes in order to allow the cells to sediment on the bottom of the test plate. In the course of this, the cells have the opportunity to adhere to the coated plastic.
(§8) 6. To stop the test, the microtiter plate is immersed completely in the stop buffer (25 mM tris, pH 7.5; 125 mM NaCl; 0.1% BSA; 2 mM MgCl2; 1 mM CaCl2; 3 mM MnCl2; 0.02% sodium azide) at an angle of 45°. The stop buffer is removed from the wells by inversion and the procedure is repeated a further two times.
7. Measurement of the BCECF-AM-labeled cells firmly adhering to the wells is carried out in a cytofluorimeter (Millipore) at a sensitivity setting of 4, an excitation wavelength of 485/220 nm and an emission wavelength of 530/250 nm.

The next experiment addresses T2, E-Selectin (Homo sapiens, UniProt P16581).
T2 sequence (P16581 22-556): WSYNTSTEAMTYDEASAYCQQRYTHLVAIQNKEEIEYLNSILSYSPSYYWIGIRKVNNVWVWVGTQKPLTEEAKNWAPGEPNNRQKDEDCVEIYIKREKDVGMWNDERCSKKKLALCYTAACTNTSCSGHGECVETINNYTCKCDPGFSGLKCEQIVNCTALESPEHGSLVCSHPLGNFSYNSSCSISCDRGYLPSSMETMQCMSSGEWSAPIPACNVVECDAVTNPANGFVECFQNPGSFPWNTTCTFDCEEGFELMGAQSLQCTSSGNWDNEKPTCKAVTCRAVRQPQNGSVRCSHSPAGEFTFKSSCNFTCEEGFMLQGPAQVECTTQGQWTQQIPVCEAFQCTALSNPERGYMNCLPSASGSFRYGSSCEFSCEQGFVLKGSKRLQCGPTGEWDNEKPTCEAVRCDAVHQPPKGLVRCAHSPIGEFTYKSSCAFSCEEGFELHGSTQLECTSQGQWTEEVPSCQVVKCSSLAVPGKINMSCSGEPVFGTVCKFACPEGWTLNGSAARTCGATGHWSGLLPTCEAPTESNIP
Nature of the experiment: Inhibition of HL60 cell adhesion to soluble, recombinant E-selectin (E-selectin-IgG1 fusion protein). In kind it is cell-based.
Description: as §1, §2
Preparation of L-selectin-IgG1
For the preparation of soluble L-selectin-IgG1 fusion protein, the genetic construct "ELAM-Rg" published by Walz et al., 1990 was used.
For expression, the plasmid DNA was transfected in COS-7 cells (ATCC) by means of DEAE-dextran (Molecular Biology Methods: see Ausubel, F. M., Brent, R., Kingston, R. E., Moore, D. D., Seidman, J. G., Struhl, K. and Smith, J. A. 1990. Current Protocols in Molecular Biology, John Wiley, New York). Seven days after transfection, the culture supernatant is recovered, freed from cells and cell fragments by centrifugation and transferred to 25 mM HEPES pH 7.0, 0.3 mM PMSF, 0.02% sodium azide and stored at +4° C.
as §3, §4, §5, §6, §7, §8

Setting [1] is: inhibition of HL60 cell adhesion to soluble, recombinant adhesion molecules, read-out: IC50 P-Selectin.
Setting [2] is: inhibition of HL60 cell adhesion to soluble, recombinant adhesion molecules, read-out: IC50 E-Selectin.

Like-named read-outs stand apart in the source and are kept apart here.

What is called IC50 is the concentration at which inhibition is half-maximal. As to `CC(=O)N[C@H]1[C@H](OCCCCCCNC(=O)C2CCC(CN3C(=O)C=CC3=O)CC2)O[C@H](CO)[C@@H](O[C@@H]2O[C@H](CO)[C@H](O)[C@H](O[C@]3(C(=O)O)C[C@H](O)[C@@H](NC(C)=O)[C@H]([C@H](O)[C@H](O)CO)O3)[C@H]2O)[C@@H]1O[C@@H]1O[C@@H](C)[C@@H](O)[C@@H](O)[C@@H]1O` (stereo partly shown) [Compound I-9], the half-maximal inhibitory concentration (IC50) on P-Selectin (setting [1]) was 330 µM.
With `CC(=O)N[C@H]1[C@H](OCCCCCCN)O[C@H](CO)[C@@H](O[C@@H]2O[C@H](CO)[C@H](O)[C@H](O[C@]3(C(=O)O)C[C@H](O)[C@@H](NC(C)=O)[C@H]([C@H](O)[C@H](O)CO)O3)[C@H]2O)[C@@H]1O[C@@H]1O[C@@H](C)[C@@H](O)[C@@H](O)[C@@H]1O` [III (n = 6), reference compound], the concentration for half-maximal inhibition (IC50) on P-Selectin (setting [1]) came out at 2000 µM.
Turning to `CSCC[C@H](NC=O)C(=O)N[C@@H](CC(C)C)C(=O)N[C@@H](Cc1ccccc1)C(=O)NCCCCCCO[C@@H]1O[C@H](CO)[C@@H](O[C@@H]2O[C@H](CO)[C@H](O)[C@H](O[C@]3(C(=O)O)C[C@H](O)[C@@H](NC(C)=O)[C@H]([C@H](O)[C@H](O)CO)O3)[C@H]2O)[C@H](O[C@@H]2O[C@@H](C)[C@@H](O)[C@@H](O)[C@@H]2O)[C@H]1NC(C)=O` [Compound I-12], the half-maximal inhibitory concentration (IC50) on E-Selectin (setting [2]) and on P-Selectin (setting [1]) was > 800 µM each time.
As to `CC(=O)N[C@H]1[C@H](OCCCCCCNC(=O)CCC(CCC(=O)NCCCCCCO[C@@H]2O[C@H](CO)[C@@H](O[C@@H]3O[C@H](CO)[C@H](O)[C@H](O[C@]4(C(=O)O)C[C@H](O)[C@@H](NC(C)=O)[C@H]([C@H](O)[C@H](O)CO)O4)[C@H]3O)[C@H](O[C@@H]3O[C@@H](C)[C@@H](O)[C@@H](O)[C@@H]3O)[C@H]2NC(C)=O)(CCC(=O)NCCCCCCO[C@@H]2O[C@H](CO)[C@@H](O[C@@H]3O[C@H](CO)[C@H](O)[C@H](O[C@]4(C(=O)O)C[C@H](O)[C@@H](NC(C)=O)[C@H]([C@H](O)[C@H](O)CO)O4)[C@H]3O)[C@H](O[C@@H]3O[C@@H](C)[C@@H](O)[C@@H](O)[C@@H]3O)[C@H]2NC(C)=O)[N+](=O)[O-])O[C@H](CO)[C@@H](O[C@@H]2O[C@H](CO)[C@H](O)[C@H](O[C@]3(C(=O)O)C[C@H](O)[C@@H](NC(C)=O)[C@H]([C@H](O)[C@H](O)CO)O3)[C@H]2O)[C@@H]1O[C@@H]1O[C@@H](C)[C@@H](O)[C@@H](O)[C@@H]1O` [II-2], the half-inhibitory concentration (IC50) stood at 130 µM on E-Selectin (read-out: IC50 E-Selectin, inhibition of HL60 cell adhesion to soluble, recombinant adhesion molecules) and 140 µM on P-Selectin (read-out: IC50 P-Selectin, inhibition of HL60 cell adhesion to soluble, recombinant adhesion molecules).
Take `CC(=O)N[C@H]1[C@H](OCCCCCCNC(=O)CCSSc2ccccn2)O[C@H](CO)[C@@H](O[C@@H]2O[C@H](CO)[C@H](O)[C@H](O[C@]3(C(=O)O)C[C@H](O)[C@@H](NC(C)=O)[C@H]([C@H](O)[C@H](O)CO)O3)[C@H]2O)[C@@H]1O[C@@H]1O[C@@H](C)[C@@H](O)[C@@H](O)[C@@H]1O` [Compound I-10]: the IC50 is 390 µM at E-Selectin (setting [2]) and 400 µM on P-Selectin (setting [1]).
For the molecule `CC(=O)N[C@@H]1[C@@H](O[C@@H]2O[C@@H](C)[C@@H](O)[C@@H](O)[C@@H]2O)[C@H](O[C@@H]2O[C@H](CO)[C@H](O)[C@H](O[C@]3(C(=O)O)C[C@H](O)[C@@H](NC(C)=O)[C@H]([C@H](O)[C@H](O)CO)O3)[C@H]2O)[C@@H](CO)O[C@H]1NC(=O)[C@H](C)NC(=O)[C@H](CC(=O)O)NC(=O)CNC(=O)[C@@H](N)CCCNC(=N)N` [Compound I-2], the results for the 50% inhibitory concentration (IC50) at E-Selectin and at P-Selectin were > 800 µM and 10 µM, respectively.
As for `CC(=O)N[C@H]1[C@H](OCCCCCCNC(=O)CCCC[C@@H]2SC[C@@H]3NC(=O)N[C@@H]32)O[C@H](CO)[C@@H](O[C@@H]2O[C@H](CO)[C@H](O)[C@H](O[C@]3(C(=O)O)C[C@H](O)[C@@H](NC(C)=O)[C@H]([C@H](O)[C@H](O)CO)O3)[C@H]2O)[C@@H]1O[C@@H]1O[C@@H](C)[C@@H](O)[C@@H](O)[C@@H]1O` [Compound I-11], on P-Selectin (setting [1]), the half-inhibitory concentration (IC50) was 600 µM.
On the same count and under the same terms, with `CC(=O)N[C@H]1[C@H](OCCCCCCNC(=O)CCC(=O)O)O[C@H](CO)[C@@H](O[C@@H]2O[C@H](CO)[C@H](O)[C@H](O[C@]3(C(=O)O)C[C@H](O)[C@@H](NC(C)=O)[C@H]([C@H](O)[C@H](O)CO)O3)[C@H]2O)[C@@H]1O[C@@H]1O[C@@H](C)[C@@H](O)[C@@H](O)[C@@H]1O` [Compound I-7] the figure was 1500 µM.
Take `CC(=O)N[C@H]1[C@H](OCCCCCCNC(=O)[C@@H](N)CCC(=O)O)O[C@H](CO)[C@@H](O[C@@H]2O[C@H](CO)[C@H](O)[C@H](O[C@]3(C(=O)O)C[C@H](O)[C@@H](NC(C)=O)[C@H]([C@H](O)[C@H](O)CO)O3)[C@H]2O)[C@@H]1O[C@@H]1O[C@@H](C)[C@@H](O)[C@@H](O)[C@@H]1O` [Compound I-6]: the 50% inhibitory concentration (IC50) at E-Selectin (setting [2]) worked out at 1200 µM.
